In general, IC50 refers to the midpoint of a concentration-inhibition curve.

Counter-ions that a name gives are not always drawn. Like-named read-outs stand apart in the source and are kept apart here.

For assay [1], the target named is T1, N-type calcium channels in IMR-32 cells (Homo sapiens, UniProt Q00975).
T1 construct: host or cells: IMR-32 cells differentiated with dibutyryl cAMP and bromodeoxyuridine
Kind of assay: N-type Ca2+ channel blocking potency in IMR-32 cells using Indo-1. The format is cell-based. The settings on record: for IC50: IMR-32 cells. The essentials: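 Differentiated IMR-32 cells loaded with Indo-1 AM were preincubated with compound and 5 μM nitrendipine (L-type block) for 10 min at 30° C in HEPES/Tris pH 7.4 HBSS with 0.5% BSA. Cells were depolarized with KCl/CaCl2, and the 400/490 nm emission ratio rise over basal was measured. IC50 came from a four-parameter logistic fit.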

Assay [2] has as its target T2, N-type Ca2+ channels in cultured superior cervical ganglion (SCG) neurons (Rattus norvegicus, UniProt Q02294).
T2 construct: from tissue
Kind of assay: Calcium current in superior cervical ganglion neurons (whole-cell voltage clamp). The format is cell-based. The settings on record: for inhibition at 1 µM: read-out: SCG Ca, % blockage at 1 μM; for inhibition at 10 µM: read-out: SCG Ca, % blockage at 10 μM; for IC50: read-out: SCG Ca, IC50. The procedure: (§1) Electrophysiological techniques were used to measure the effects of experimental compounds on voltage-gated Ca^2+, […] , and K^+ channels. […] Sodium and potassium channel currents were measured from acutely dissociated SCG neurons.
(§2) Dissociation of the neurons from the ganglia was accomplished using a 30 to 45 minute treatment in 0.25% trypsin, similar to methods outlined in Higgins, et al. (see Higgins D. et al. “Tissue culture of mammalian autonomic neurons.” In Banker G. and Goslin K. (Eds), Culturing Nerve Cells, Cambridge, Mass., MIT Press [1991]).
(§3) Ca^2+, Na^+, and K^+ channel currents in SCG neurons were measured using conventional single electrode whole-cell voltage-clamp techniques, outlined in Hamill et al., (see Hamill O. P. et al. “Improved patch-clamp techniques for high resolution current recordings from cells and cell-free membrane patches.”Pflugers Arch., 1981;391:85-100). For Ca^2+ channel experiments, the external bathing solution contained tetraethylammonium chloride (100 mM), choline chloride (52 mM), NaCl (15 mM), HEPES (10 mM), glucose (5.6 mM), CaCl2 (2 mM), and MgCl2 (0.8 mM), pH 7.35 with KOH; with the internal pipette solution containing cesium methane sulfonate (140 mM), EGTA (10 mM), and HEPES (10 mM), supplemented with 5 mM Mg^2+-ATP on the day of the experiment, pH 7.4 with CsOH. For Na^+ and K^+ channel experiments, the external bathing solution contained NaCl (150 mM), KCl (5 mM), MgCl2 (1.1 mM), CaCl2 (2.6 mM), Na-HEPES (10 mM), and glucose (10 mM), pH 7.4; with the internal pipette solution containing KCl (80 mM), K-gluconate (50 mM), HEPES (10 mM), and EGTA (10 mM), pH 7.4 with KOH. Experimental compounds were diluted into the external solution and applied to the soma of cells by local perfusion from large diameter (20-50 μm) glass micropipettes or from a U-tube applicator.
After obtaining a whole-cell recording, Ca^2+ channels were elicited by stepping to test potentials between −40 and +20 mV for 120 msec from the holding potential of −90 mV to determine if the amplitude of the current and clamp control were adequate for evaluation of drug effects. Ca^2+ channel currents were evoked by stepping from a holding potentials between −65 mV and −55 mV to a test potential of +20 mV for 150 msec every 40 seconds. The amplitude of the Ca^2+ channel currents were compared before and during drug application and drug effects expressed as percent inhibition of the amplitude of control currents.

For assay [3], the system named is K+ channels in SCG neurons. Kind of assay: Potassium current in superior cervical ganglion neurons (whole-cell voltage clamp). The format is cell-based, rat. Here is the method:
as §1, §2, §3
(§4) For Na^+ and K^+ channel currents, following the determination of the I/V relationship for each cell in control solution, currents were evoked from a holding potential between −65 and −55 mV by stepping every 10 sec to a test potential of either 0 mV for Na^+ or +50 mV for K^+ current for a duration of 35 msec. Peak inward current was measured for Na^+ and sustained current for K^+ channel currents. […] Test compounds were applied until steady-state block was achieved. Data were expressed as percent inhibition of control amplitudes for Na^+ and K^+ channel currents.

Assay [4] relates to Na+ channels in SCG neurons. Put plainly: Sodium current in superior cervical ganglion neurons (whole-cell voltage clamp). The format is cell-based, rat. The procedure:
as §1, §2, §3, §4

[5] abbreviates: 5 μM nitrendipine present, read-out: IMR32 IC50.
Setting [6] is: estimated from two data points, read-out: IMR32 IC50 (estimated IC50 values based on two data points).

T2 sequence (Q02294 whole entry): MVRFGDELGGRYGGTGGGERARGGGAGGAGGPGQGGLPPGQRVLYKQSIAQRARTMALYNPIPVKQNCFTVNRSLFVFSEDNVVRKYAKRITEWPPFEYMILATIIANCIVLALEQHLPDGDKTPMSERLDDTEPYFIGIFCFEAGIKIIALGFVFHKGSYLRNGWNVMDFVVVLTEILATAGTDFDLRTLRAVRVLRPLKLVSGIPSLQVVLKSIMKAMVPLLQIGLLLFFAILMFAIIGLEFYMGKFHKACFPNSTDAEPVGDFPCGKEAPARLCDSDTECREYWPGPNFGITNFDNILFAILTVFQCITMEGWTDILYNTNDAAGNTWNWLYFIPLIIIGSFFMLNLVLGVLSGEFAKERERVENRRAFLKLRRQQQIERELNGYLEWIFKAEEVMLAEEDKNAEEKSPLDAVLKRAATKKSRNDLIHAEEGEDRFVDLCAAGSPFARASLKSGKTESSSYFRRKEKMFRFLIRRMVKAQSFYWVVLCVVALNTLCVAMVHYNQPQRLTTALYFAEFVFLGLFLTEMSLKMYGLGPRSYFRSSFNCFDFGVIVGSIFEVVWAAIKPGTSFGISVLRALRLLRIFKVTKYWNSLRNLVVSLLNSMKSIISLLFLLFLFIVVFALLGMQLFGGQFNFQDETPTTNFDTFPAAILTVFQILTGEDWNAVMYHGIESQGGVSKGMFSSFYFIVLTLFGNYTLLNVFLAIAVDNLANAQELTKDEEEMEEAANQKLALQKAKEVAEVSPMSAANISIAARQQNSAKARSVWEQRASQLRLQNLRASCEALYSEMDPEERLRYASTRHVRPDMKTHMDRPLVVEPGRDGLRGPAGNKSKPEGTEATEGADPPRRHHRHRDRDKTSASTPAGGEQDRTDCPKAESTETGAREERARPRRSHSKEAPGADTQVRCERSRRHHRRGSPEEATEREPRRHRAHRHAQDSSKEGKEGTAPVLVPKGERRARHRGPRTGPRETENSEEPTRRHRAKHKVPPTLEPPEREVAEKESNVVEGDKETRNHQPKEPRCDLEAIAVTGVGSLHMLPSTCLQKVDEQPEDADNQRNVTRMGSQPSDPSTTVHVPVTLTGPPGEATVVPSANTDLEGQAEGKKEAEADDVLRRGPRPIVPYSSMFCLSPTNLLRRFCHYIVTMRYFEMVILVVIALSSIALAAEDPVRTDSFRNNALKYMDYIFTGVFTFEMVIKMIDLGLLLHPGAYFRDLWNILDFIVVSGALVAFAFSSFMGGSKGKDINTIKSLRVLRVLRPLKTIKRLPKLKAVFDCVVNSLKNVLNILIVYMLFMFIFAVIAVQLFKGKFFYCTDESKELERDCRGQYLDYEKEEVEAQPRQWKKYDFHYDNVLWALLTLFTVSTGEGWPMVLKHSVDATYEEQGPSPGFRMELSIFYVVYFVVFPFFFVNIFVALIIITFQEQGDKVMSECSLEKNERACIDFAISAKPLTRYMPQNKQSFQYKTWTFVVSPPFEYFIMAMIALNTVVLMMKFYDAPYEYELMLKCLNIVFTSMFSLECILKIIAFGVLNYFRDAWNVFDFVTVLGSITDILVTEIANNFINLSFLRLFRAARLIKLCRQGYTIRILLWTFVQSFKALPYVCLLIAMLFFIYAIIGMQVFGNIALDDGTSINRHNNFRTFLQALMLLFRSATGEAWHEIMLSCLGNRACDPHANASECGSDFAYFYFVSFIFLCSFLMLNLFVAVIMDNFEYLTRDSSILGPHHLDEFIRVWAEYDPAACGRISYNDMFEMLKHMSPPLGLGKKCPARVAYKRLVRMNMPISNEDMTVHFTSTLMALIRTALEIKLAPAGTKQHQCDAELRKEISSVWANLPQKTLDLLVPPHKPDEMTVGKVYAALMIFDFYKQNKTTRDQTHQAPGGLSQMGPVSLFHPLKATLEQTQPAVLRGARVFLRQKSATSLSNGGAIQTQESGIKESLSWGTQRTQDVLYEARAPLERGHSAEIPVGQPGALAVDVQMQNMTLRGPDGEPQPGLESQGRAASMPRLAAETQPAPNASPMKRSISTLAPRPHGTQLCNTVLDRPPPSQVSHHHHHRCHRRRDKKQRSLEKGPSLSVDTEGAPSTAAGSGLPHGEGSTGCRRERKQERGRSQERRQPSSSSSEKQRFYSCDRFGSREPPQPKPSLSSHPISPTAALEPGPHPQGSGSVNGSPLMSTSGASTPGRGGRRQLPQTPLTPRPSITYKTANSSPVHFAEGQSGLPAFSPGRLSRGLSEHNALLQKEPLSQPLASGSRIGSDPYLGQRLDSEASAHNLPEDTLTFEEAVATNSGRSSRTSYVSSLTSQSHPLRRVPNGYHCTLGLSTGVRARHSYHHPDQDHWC
T2 sequence (P54290 25-944 partner limits assumed): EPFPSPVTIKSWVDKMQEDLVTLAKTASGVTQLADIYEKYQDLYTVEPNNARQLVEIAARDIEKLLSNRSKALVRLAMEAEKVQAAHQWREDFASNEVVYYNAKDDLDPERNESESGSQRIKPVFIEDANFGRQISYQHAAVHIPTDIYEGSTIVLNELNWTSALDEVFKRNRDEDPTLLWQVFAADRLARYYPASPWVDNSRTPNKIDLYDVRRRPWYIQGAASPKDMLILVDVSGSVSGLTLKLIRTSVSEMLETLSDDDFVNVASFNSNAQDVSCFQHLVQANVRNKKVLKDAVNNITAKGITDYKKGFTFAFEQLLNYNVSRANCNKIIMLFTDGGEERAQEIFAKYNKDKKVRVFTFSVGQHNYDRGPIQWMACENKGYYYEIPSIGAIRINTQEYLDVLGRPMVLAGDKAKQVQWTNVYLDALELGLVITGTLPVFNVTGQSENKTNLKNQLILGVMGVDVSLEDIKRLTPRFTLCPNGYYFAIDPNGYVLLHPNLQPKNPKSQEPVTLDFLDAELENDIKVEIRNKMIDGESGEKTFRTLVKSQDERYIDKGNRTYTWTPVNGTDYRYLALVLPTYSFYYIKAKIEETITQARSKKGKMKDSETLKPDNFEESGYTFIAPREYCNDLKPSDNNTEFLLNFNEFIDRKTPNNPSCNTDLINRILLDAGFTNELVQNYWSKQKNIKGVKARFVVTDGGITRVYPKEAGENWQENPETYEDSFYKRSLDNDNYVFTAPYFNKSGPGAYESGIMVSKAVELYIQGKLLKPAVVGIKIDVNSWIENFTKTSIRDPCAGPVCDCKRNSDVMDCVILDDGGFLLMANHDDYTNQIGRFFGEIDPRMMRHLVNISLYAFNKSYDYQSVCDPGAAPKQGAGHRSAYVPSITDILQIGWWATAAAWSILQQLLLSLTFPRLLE
T2 sequence (P54290 945-1091 partner limits assumed): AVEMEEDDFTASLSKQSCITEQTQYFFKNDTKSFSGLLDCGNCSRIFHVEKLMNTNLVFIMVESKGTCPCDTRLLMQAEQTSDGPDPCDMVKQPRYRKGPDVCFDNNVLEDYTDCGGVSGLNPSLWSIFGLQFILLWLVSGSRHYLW
T2 sequence (P54287 whole entry partner): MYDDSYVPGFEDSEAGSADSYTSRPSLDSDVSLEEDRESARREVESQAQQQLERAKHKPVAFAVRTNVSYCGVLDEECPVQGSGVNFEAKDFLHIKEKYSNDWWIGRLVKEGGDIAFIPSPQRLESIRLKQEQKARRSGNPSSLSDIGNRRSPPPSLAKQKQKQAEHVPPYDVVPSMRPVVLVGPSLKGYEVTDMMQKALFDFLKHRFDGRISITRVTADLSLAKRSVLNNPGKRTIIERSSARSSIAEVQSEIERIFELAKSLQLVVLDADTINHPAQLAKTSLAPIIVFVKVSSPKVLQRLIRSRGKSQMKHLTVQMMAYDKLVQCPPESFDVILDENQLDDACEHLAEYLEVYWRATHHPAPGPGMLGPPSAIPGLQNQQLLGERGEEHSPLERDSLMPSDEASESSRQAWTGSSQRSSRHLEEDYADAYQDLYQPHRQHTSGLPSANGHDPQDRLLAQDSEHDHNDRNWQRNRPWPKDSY

For the compound `CC(C)C[C@H](N)C(=O)NCCCC(c1ccc(F)cc1)c1ccc(F)cc1` [Example 7, (S)-2-Amino-4-methyl-pentanoic acid [4,4-bis-(4-fluoro-phenyl)-butyl]-amide monohydrochloride], in assay [1] (setting [5]), the IC50 worked out at 2400 nM. Moreover, in assay [2], the inhibition at 1 µM was 45% and the inhibition at 10 µM amounted to 98%. Besides, the “SCG K, % blockage at 10 μM” value in assay [3] was 90% @ 10.

With `CC(C)C[C@H](NCC1CCCCC1)C(=O)NCCCC(c1ccc(F)cc1)c1ccc(F)cc1` [Example 8, (S)-2-(Cyclohexylmethyl-amino)-4-methyl-pentanoic acid [4,4-bis-(4-fluoro-phenyl)-butyl]-amide monohydrochloride], the “SCG Na, % blockage at 10 μM” value in assay [4] worked out at 94% @ 10. Moreover, the IC50 in assay [1] (setting [5]) turned out to be 460 nM; in assay [2], 2400 nM. Besides, the “SCG K, % blockage at 10 μM” value in assay [3] came out at 50% @ 10.

For the compound `CC(C)=CCN[C@@H](CC(C)C)C(=O)NCCCC(c1ccc(F)cc1)c1ccc(F)cc1` [Example 9, (S)-4-Methyl-2-(3-methyl-but-2-enylamino)-pentanoic acid [4,4-bis-(4-fluoro-phenyl)-butyl]-amide monohydrochloride], the IC50 in assay [4] stood at 8500 nM; in assay [1] (setting [5]), 280 nM; in assay [2], 53000 nM; in assay [3] it was 9100 nM.

Consider `CN[C@@H](CC(C)C)C(=O)NCCCC(c1ccc(F)cc1)c1ccc(F)cc1` [Example 12, (S)-4-Methyl-2-methylamino-pentanoic acid [4,4-bis-(4-fluoro-phenyl)-butyl]-amide monohydrochloride], for which the “SCG Na, % blockage at 10 μM” value in assay [4] stood at 87% @ 10. Further, the IC50 in assay [1] (setting [5]) came to 1430 nM. Moreover, in assay [2], the inhibition at 1 µM was 3% and the inhibition at 10 µM stood at 94%. Moreover, in assay [3], the “SCG K, % blockage at 1 μM” value is 15% @ 1 and the “SCG K, % blockage at 10 μM” value amounted to 58% @ 10.

Take `CC(C)C[C@@H](C(=O)NCCCC(c1ccc(F)cc1)c1ccc(F)cc1)N(C)Cc1ccc(C(C)(C)C)cc1.Cl` [Example 14, (S)-2-[(4-tert-Butyl-benzyl)-methyl-amino]-4-methyl-pentanoic acid [4,4-bis-(4-fluoro-phenyl)-butyl]-amide monohydrochloride]: the IC50 in assay [1] (setting [5]) stood at 840 nM. Besides, in assay [2], the inhibition at 10 µM stood at 8%. In addition, the “SCG K, % blockage at 10 μM” value in assay [3] was −1% @ 10.

On to `CC(C)CCN(C)[C@@H](CC(C)C)C(=O)NCCCC(c1ccc(F)cc1)c1ccc(F)cc1` [Example 28, (S)-4-Methyl-2-[methyl-(3-methyl-butyl)-amino]-pentanoic acid [4,4-bis-(4-fluoro-phenyl)-butyl]-amide monohydrochloride], for which, in assay [4] (at 1 μM), the “SCG Na, % blockage at 1 μM” value was determined as 5% @ 1. Further, the “SCG Na, % blockage at 10 μM” value in assay [4] was found to be 90% @ 10. For the same compound, the inhibition at 1 µM in assay [1] (IMR-32, IMR-32 cells, at 1 μM, read-out: IMR32 % blockage at 1 μM) came to 92%. Moreover, the inhibition at 10 µM in assay [1] (IMR-32, IMR-32 cells, at 10 μM, read-out: IMR32 % blockage at 10 μM) stood at 97%. In assay [2], the inhibition at 1 µM was found to be 55% and the inhibition at 10 µM is 88%. Besides, in assay [3], the “SCG K, % blockage at 1 μM” value is reported as 3% @ 1 and the “SCG K, % blockage at 10 μM” value came out at 47% @ 10.

Take `CC(C)C[C@H](NC(=O)N1CCCCCC1)C(=O)N1CCN(C(c2ccc(F)cc2)c2ccc(F)cc2)CC1` [Example 31, (S)-Azepane-1-carboxylic acid (1-{4-[bis-(4-fluoro-phenyl)-methyl]-piperazine-1-carbonyl}-3-methyl-butyl)-amide]: in assay [1] (setting [5]), the IC50 was 480 nM. In assay [2], the inhibition at 1 µM worked out at 2.5% and the inhibition at 10 µM came to 62%.

Consider `CC(C)[C@H](NC(=O)N1CCCCCC1)C(=O)N1CCN(C(c2ccc(F)cc2)c2ccc(F)cc2)CC1` [Example 33, (S)-Azepane-1-carboxylic acid (1-{4-[bis-(4-fluoro-phenyl)-methyl]-piperazine-1-carbonyl}-2-methyl-propyl)-amide], for which, in assay [4], the “SCG Na, % blockage at 10 μM” value is 22% @ 10. Further, the IC50 in assay [1] (setting [5]) worked out at 850 nM. In assay [2], the inhibition at 1 µM was 18% and the inhibition at 10 µM came to 72%. Further, the “SCG K, % blockage at 10 μM” value in assay [3] amounted to 39% @ 10.

In the case of `CC(C)C[C@@H](CN1CCN(C(c2ccc(F)cc2)c2ccc(F)cc2)CC1)NC(=O)N1CCCCCC1` [Example 36, (S)-Azepane-1-carboxylic acid (1-{4-[bis-(4-fluoro-phenyl)-methyl]-piperazin-1-ylmethyl}-3-methyl-butyl)-amide], the “SCG Na, % blockage at 10 μM” value in assay [4] is on record as 81% @ 10. Further, in assay [1] (setting [6]), the IC50 was 500 nM. Besides, in assay [2], the inhibition at 1 µM amounted to 18% and the inhibition at 10 µM is 81%. The “SCG K, % blockage at 10 μM” value in assay [3] was 27% @ 10.

For the compound `CC(C)C[C@@H](C(=O)N1CCN(C(c2ccc(F)cc2)c2ccc(F)cc2)CC1)N(C)C` [Example 39, (S)-1-{4-[Bis-(4-fluoro-phenyl)-methyl]-piperazin-1-yl}-2-dimethylamino-4-methyl-pentan-1-one dihydrochloride], in assay [1] (setting [6]), the IC50 is 3500 nM. In addition, in assay [2], the inhibition at 1 µM was found to be 15% and the inhibition at 10 µM was found to be 75%. For the same compound, the “SCG K, % blockage at 1 μM” value in assay [3] is 6% @ 1.
